Source: patent US20070254907A1, “COMPOSITIONS AND METHODS FOR CONTROLLING INFESTATION” (HATCHTECH PTY LTD, priority 2003, published 2007)
“And” between values parts separate entries of the source, which are not always exact repeats. Equal values may be shown once.

Legend:
[1] = tested on: Lice (L) and Plutella (P) eggs; experiment: whole plant or invertebrate; settings: read-out: Ovicidal activity %
[2] = tested on: lice eggs; experiment: Standard lice egg-hatching assay, commercial head lice products with rinse; format: in vivo; settings: for H (number of eggs successfully hatched) / Ph (number of eggs partly hatched): per replicate, products per manufacturer's recommendations, 1,10-phenanthroline 10 mM, rinsed
Experimental: (§1) These three products were tested according to manufacturer's recommendations. Groups of eggs (24 hours old) were treated with the different products according to manufacturer's recommendations for the appropriate period of time (5-10 minutes) followed by a rinse for 1-2 minutes in 32° C. water. A positive controls (10 mM 1,10-phenanthroline) and two negative controls (no treatment and 20% Methanol) were also incorporated. Post exposure to the different products, the eggs were rinsed with warm water at 32° C. before being blotted dry on tissue paper and placed at 32° C., 70% RH and left to hatch. A second group of eggs, (48 hours old) were treated as previously described and also left to hatch. This process was repeated at 24 hour intervals on head lice eggs up to 120 hours post laying. This method of assaying inhibitors more closely mirrors the field situation where lice eggs will be at various stages of development on the head and permits the inhibitory effects to be observed on these different stages of the parasite.
as §1, with “two” for “three”, “Two” for “A positive controls (10 mM 1,10-phenanthroline) and two”, “ethanol)” for “Methanol)”, “were” for “were rinsed with warm water at 32° C. before being”

[3] = tested on: body louse eggs; experiment: Standard body louse egg assay with formulated compound; format: in vivo, body lice; settings: 10 minute exposure; for % of eggs that hatched following treatment: formulated
Experimental: 5,5′-dimethyl-2,2′-dipyridyl was formulated and evaluated in the standard body louse egg assay. Body louse eggs (15-30 per replicate) of varying ages were exposed for 10 minute to the test solutions or a placebo or left untreated, followed by a 1 minute water wash and blotted dry. The eggs were then incubated at 30° C. over the following 10 days post treatment and the percentage of eggs that successfully hatched was determined (Table 20).

[4] = tested on: third stage H. contortus larvae; experiment: Survival and L3 to L4 moulting of third stage larvae; format: in vivo, Haemonchus contortus
Experimental: Third stage H. contortus larvae were exposed to varying concentrations of 5,5′-dimethyl-2,2′-dipyridyl and the effects on moulting from L3 to L4 examined. The larvae were either exsheathed (their L2 sheath was removed chemically) or unexsheathed (their L2 sheaths were intact). The larvae were exposed to varying concentrations of 5,5′-dimethyl-2,2′-dipyridyl added to their culture media of DMEM and the effects on larval survival monitored over time. Following a 30 minute incubation at 37° C., greater than 90% of the exsheathed larvae exposed to 1 and 0.5 mM of the compound appeared dead. […] By day six post exposure greater than 90% of the larvae appeared to have died in the treatment groups while the control larvae appeared healthy.

c1cnc2c(c1)ccc1cccnc12 [1,10-phenanthroline, reference compound]
inhibition at 10000 µM [1]: 100%
ovicidal activity across the different stages of lice egg hatching ([2]; 24-120 hr post egg laying): highly effective at inhibiting lice egg hatching
H (number of eggs successfully hatched) ([2]; treated 24 hr post egg laying): 0
Ph (number of eggs partly hatched) ([2]; treated 24 hr post egg laying): 0
H (number of eggs successfully hatched) ([2]; treated 48 hr post egg laying): 0
Ph (number of eggs partly hatched) ([2]; treated 48 hr post egg laying): 0
H (number of eggs successfully hatched) ([2]; treated 72 hr post egg laying): 0
Ph (number of eggs partly hatched) ([2]; treated 72 hr post egg laying): 0
H (number of eggs successfully hatched) ([2]; treated 96 hr post egg laying): 0
Ph (number of eggs partly hatched) ([2]; treated 96 hr post egg laying): 0
H (number of eggs successfully hatched) ([2]; treated 120 hr post egg laying): 0 and 4 and 1
Ph (number of eggs partly hatched) ([2]; treated 120 hr post egg laying): 0

Cc1ccc(-c2ccc(C)cn2)nc1 [5,5′-dimethyl-2,2′-dipyridyl]
ovicidal activity of formulated compound on body louse eggs ([3]; 1 minute water wash): strong dose dependency of ovicidal activity
% of eggs that hatched following treatment ([3]; 1 mM, age of eggs 24 hr): 91%
% of eggs that hatched following treatment ([3]; 1 mM, age of eggs 48 hr): 80%
% of eggs that hatched following treatment ([3]; 1 mM, age of eggs 96 hr): 82%
% of eggs that hatched following treatment ([3]; 1 mM, age of eggs 120 hr): 86%
% of eggs that hatched following treatment ([3]; 5 mM, age of eggs 24 hr): 21%
% of eggs that hatched following treatment ([3]; 5 mM, age of eggs 48 hr): 58%
% of eggs that hatched following treatment ([3]; 5 mM, age of eggs 96 hr): 64%
% of eggs that hatched following treatment ([3]; 5 mM, age of eggs 120 hr): 65%
% of eggs that hatched following treatment ([3]; 10 mM, age of eggs 24 hr): 4%
% of eggs that hatched following treatment ([3]; 10 mM, age of eggs 48 hr): 7%
% of eggs that hatched following treatment ([3]; 10 mM, age of eggs 96 hr): 10%
% of eggs that hatched following treatment ([3]; 10 mM, age of eggs 120 hr): 12%
% of eggs that hatched following treatment ([3]; 30 mM, age of eggs 24 hr): 0%
% of eggs that hatched following treatment ([3]; 30 mM, age of eggs 48 hr): 0%
% of eggs that hatched following treatment ([3]; 30 mM, age of eggs 96 hr): 0%
% of eggs that hatched following treatment ([3]; 30 mM, age of eggs 120 hr): 0%
appearance of unexsheathed larvae ([4]; 10 μM, up to 6 days post exposure): larvae appeared normal
exsheathed larvae that appeared dead ([4]; 1 and 0.5 mM in DMEM, 30 minute incubation at 37° C.): greater than 90%
unexsheathed larvae that appeared to have died ([4]; day six post exposure, treatment groups): greater than 90%
effects on unexsheathed larvae compared to control larvae ([4]; up to 3 days post exposure): no adverse effects were observed
